Measurements taken from patent US6458847B1, “Method for screening for drugs useful in inhibition of polymerization of aβ and tau peptides” (University of Alabama at Birmingham Research Foundation, priority 1995, dated 2002).

How the values were obtained:
[1] = tested on: adult rat MTτ; test: Arachidonic acid dependence of tau assembly, adult rat MTτ; assay type: biochemical
Experimental: (§1) For most experiments, tau proteins were diluted to 2× the desired concentration in buffer A, then 1/2 in borate saline (0.1 M H3BO3, 25 mM Na2B4O7, 75 mM NaCl) supplemented with 20 mM dithiothreitol (DTT) and 2× the required concentration of free fatty acids (final pH ˜8.4). Assembly was performed at 37° C. in siliconized microfuge tubes. For evaluating the dependence of assembly on ionic strength, tau was diluted 1/10 into 111 mM Tris pH 7.2, 11 mM DTT, supplemented to give the indicated final concentrations of NaCl. At 250 mM NaCl, the measured CMC of arachidonic acid in the Tris buffering system was >2 mM. […] For staining of amyloid filaments, 4% uranyl acetate was used and the H2O rinse was omitted. […] For filament length measurements, random micrographs obtained at a nominal magnification of 15K were digitized and traced using either software from Universal Imaging Corporation or the public domain NIH Image program (for Macintosh; written by W. Rasband at the NIH and available from the Internet by anonymous ftp from zippy.nimh.nih.gov or on floppy disk from NTIS, 5285 Port Royal Rd., Springfield, Va. 22161, part number PB93-504868). […] Because short filaments were sometimes difficult to distinguish from background debri in digitized images, high concentrations of DTT were routinely used in order to maximize the production of longer filaments.

[2] = molecular target: T1, juvenile rat MTτ (Rattus norvegicus, UniProt P19332, DEL587-617); test: Fatty acid dependence of tau assembly, polymer length per field by electron microscopy; assay type: biochemical; details: for Polymer Mass (μm/field) / % maximum: 50 μM free fatty acid, 72 hours; for Polymer Mass (μm/field): juvenile rat MTτ, average ± S.E.M. (n = 12); for % maximum: relative to the maximal assembly achieved with arachidonic acid; for stimulation of tau assembly, qualitative examination of grids: 50 μM, below measured CMC values
T1 construct: killed by decapitation at postnatal day 11 (juveniles); from tissue; host or cells: brain microtubules of P11 Sprague-Dawley rats
T1 sequence (P19332 with tags, fused parts or gaps isoform P19332-6 DEL209-239): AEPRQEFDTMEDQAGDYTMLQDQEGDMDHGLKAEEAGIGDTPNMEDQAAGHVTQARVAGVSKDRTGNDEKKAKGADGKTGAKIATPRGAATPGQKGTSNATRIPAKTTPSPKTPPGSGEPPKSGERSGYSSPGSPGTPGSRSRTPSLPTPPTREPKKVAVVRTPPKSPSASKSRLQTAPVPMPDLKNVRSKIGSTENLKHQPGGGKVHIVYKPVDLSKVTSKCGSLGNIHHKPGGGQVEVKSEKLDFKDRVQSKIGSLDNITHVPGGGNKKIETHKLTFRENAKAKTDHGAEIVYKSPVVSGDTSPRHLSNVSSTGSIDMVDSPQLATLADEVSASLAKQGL
Experimental: (§2) All free fatty acids were purchased in the cis conformation and at maximum available purity from Sigma Chemical Company free fatty acids were diluted into tau and amyloid samples from a 200× ethanolic stock, such that the final ethanol concentration in all samples and controls was 0.5%.
Assembly was performed at 37° C. in siliconized microfuge tubes.
(§3) For staining of amyloid filaments, 4% uranyl acetate was used and the H2O rinse was omitted. […] Because short filaments were sometimes difficult to distinguish from background debri in digitized images, high concentrations of DTT were routinely used in order to maximize the production of longer filaments.

[3] = tested on: tau; test: Arachidonic acid stimulated polymerization, all tau preparations examined; assay type: biochemical; details: tau concentrations of 2.5-5 μM
Experimental: as §1

[4] = Critical micellar concentration by phase partitioning of phenylnaphthylamine; assay type: physicochemical; details: for CMC: free fatty acids diluted into assembly buffer
Experimental: as §2, with “0.5%. Values for the critical micellar concentration (CMC) were obtained based on the phase partitioning of […] phenylnaphthylamine (Kovatchev et al., 1981) when free fatty acids were diluted into assembly buffer.” for “0.5%.”
For most experiments, tau proteins were diluted to 2× the desired concentration in buffer A, then 1/2 in borate saline (0.1 M H3BO3, 25 mM Na2B4O7, 75 mM NaCl) supplemented with 20 mM dithiothreitol (DTT) and 2× the required concentration of free fatty acids (final pH ˜8.4). Assembly was performed at 37° C. in siliconized microfuge tubes. For evaluating the dependence of assembly on ionic strength, tau was diluted 1/10 into 111 mM Tris pH 7.2, 11 mM DTT, supplemented to give the indicated final concentrations of NaCl. At 250 mM NaCl, the measured CMC of arachidonic acid in the Tris buffering system was >2 mM.

[5] = tested on: tau purified from porcine whole brain; test: Arachidonic acid dependence of tau assembly, porcine whole brain tau; assay type: biochemical; details: 20-80 μM arachidonic acid, 66 hours; no spontaneous assembly
Experimental: as §3, with “Assembly was performed at 37° C. in siliconized microfuge tubes. […] For” for “For”

[6] = molecular target: T2, human recombinant tau (Homo sapiens, UniProt P10636); test: Arachidonic acid dependence of tau assembly, human recombinant tau; assay type: biochemical; details: 20-80 μM arachidonic acid, 66 hours; no spontaneous assembly
T2 construct: the conditions defined herein are conducive to assembly of the full length tau protein; polyhistidine tag; host or cells: E. coli
T2 sequence (P10636 1-441 isoform P10636-8): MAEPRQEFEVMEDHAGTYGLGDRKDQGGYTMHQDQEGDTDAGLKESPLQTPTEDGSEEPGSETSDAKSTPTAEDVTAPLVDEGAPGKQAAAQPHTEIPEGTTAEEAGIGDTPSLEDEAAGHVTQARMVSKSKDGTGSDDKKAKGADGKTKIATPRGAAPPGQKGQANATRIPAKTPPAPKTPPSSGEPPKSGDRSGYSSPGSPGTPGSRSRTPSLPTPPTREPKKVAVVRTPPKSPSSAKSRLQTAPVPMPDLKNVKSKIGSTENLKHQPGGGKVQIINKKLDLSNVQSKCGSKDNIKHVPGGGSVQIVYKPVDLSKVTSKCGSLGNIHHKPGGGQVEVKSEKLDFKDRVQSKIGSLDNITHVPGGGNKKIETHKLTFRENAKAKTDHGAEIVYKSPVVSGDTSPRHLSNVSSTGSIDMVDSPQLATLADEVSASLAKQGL
Description: Sprague-Dawley rats were obtained from Charles River, Wilmington, Mass., and killed by decapitation at postnatal day 11 (juveniles) or at greater than six weeks of age (adults). Fresh porcine brains were obtained from Bryan Meat Packing, Westpoint Miss. Detailed protocols for the isolation of tau from whole brain or twice-cycled brain microtubules have been described above. Nonphosphorylated, recombinant human tau (htau40; Goedert et al., 1989) was the gift of Dr. Jeff Kuret, Northwestern University Medical School, Chicago, Ill. Recombinant tau was produced in E. coli as a fusion protein with a polyhistidine tag, and purified to near homogeneity by nickel-chelate and gel filtration chromatography (Carmel et al., 1994). Following purification tau isolates were dialyzed against buffer A (20 mM morpholinoethanesulfonic acid pH 6.8, 80 mM NaCl, 2 mM EGTA, 1 mM MgCl2, 0.1 mM EDTA) and stored at −80° C. Protein concentrations were determined using the method of Lowry (Lowry et al., 1951), after samples in Laemmli sample buffer (Laemmli, 1970) were precipitated with 10 volumes of 10% perchloric acid, 1% phosphotungstic acid. Bovine serum albumin was used as the standard. […] At 250 mM NaCl, the measured CMC of arachidonic acid in the Tris buffering system was >2 mM. […]

[7] = molecular target: T3, Aβ1-40 (Homo sapiens, UniProt P05067); test: Amyloid peptide assembly, electron microscopy; assay type: biochemical; details: 24 hour incubation with 40 mM oleic acid or 50 mM linoleic acid
T3 construct: Aβ1-40 (Amyloid β-protein, residues 1-40, Sigma); purchased Sigma
T3 sequence (P05067 672-711 limits assumed): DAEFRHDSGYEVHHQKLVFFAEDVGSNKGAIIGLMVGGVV
Experimental: (§4) Aβ1-40 (Amyloid β-protein, residues 1-40, Sigma) was resuspended in Aβ assembly buffer (100 mM Tris pH 7.4, 150 mM NaCl) at a concentration of 0.5 mg/ml, and frozen in aliquots at −80° C. Thawed aliquots were diluted to […] in assembly buffer, and following a 2 hour pre-incubation, were centrifuged for 10 min at 14,000 rpm in an Eppendorf 5415C desktop centrifuge. The clarified solution was then supplemented with free fatty acids (final Aβ concentration ˜[…]), and incubated for 24 hours. Care was taken to perform all procedures at 4° C.
For staining of amyloid filaments, 4% uranyl acetate was used and the H2O rinse was omitted. […] For filament length measurements, random micrographs obtained at a nominal magnification of 15K were digitized and traced using either software from Universal Imaging Corporation or the public domain NIH Image program (for Macintosh; written by W. Rasband at the NIH and available from the Internet by anonymous ftp from zippy.nimh.nih.gov or on floppy disk from NTIS, 5285 Port Royal Rd., Springfield, Va. 22161, part number PB93-504868). […] Because short filaments were sometimes difficult to distinguish from background debri in digitized images, high concentrations of DTT were routinely used in order to maximize the production of longer filaments.

[8] = molecular target: T3, Aβ1-40; test: Amyloid peptide assembly, thioflavin T fluorescence spectroscopy; assay type: biochemical; details: for fatty acid concentration giving significant increases in polymer content: thioflavin T fluorescence, 24 hours
Experimental: as §4
Fluorescence spectroscopy was performed essentially as described (Castano et al., 1995). Aliquots were diluted 1/6 into 67 mM glycine pH 9, […] thioflavin T, vortexed, and placed in a quartz cuvette. Samples were read on a Perkin Elmer LS-50B luminescence spectrometer, excitation=435 nm, emission=485 nm, slit widths=5 nm. The integrated intensity was averaged from the initial ten, 10 sec sampling intervals. The signal was stable for at least several hours. The fluorescence of five samples lacking Aβ was averaged and subtracted as background from all readings.

[9] = tested on: microtubule tau purified from P11 rat, adult rat; details: glutathione 1-10 mM
Experimental: In general, tau stored at −80° C. in buffer A was thawed at 4° C., diluted into 100 mM Tris pH 7.2 containing DTT or b-mercaptoethanol (bME), and incubated at 37° C. 100 mM MES was used for experiments requiring buffering below pH 7. Final tau concentrations were in the range of 1-10 μM. […] Samples were deposited in 10 ml aliquots onto 400 mesh nickel grids coated with 0.4% formvar, rinsed with 5 drops H2O, and stained with 5 drops of 2% uranyl acetate, the last drop sitting 1 minutes prior to blotting. Grids were examined using a JEOL JEM-100CX transmission electron microscope operated at 80 kV. For filament length measurements, micrographs obtained at a nominal magnification of 15K (FIG. 6) or 10K (FIGS. 7 and 9) were digitized using a SIT68 camera (MTI), and lengths were determined using software from Universal Imaging Corporation. Only filaments contained completely within a field and measuring at least 50 nm were included in data sets. Fields selected at random were chosen at low illumination and without the aid of the 10× binoculars, so that Formvar integrity could be assessed without viewing the filaments present.

SMILES | Polymer Mass (μm/field) [2] [μm/field] | % maximum [2] [%] | CMC [4] [mM] | other results
O[C@H](CS)[C@H](O)CS (racemic) [DTT, dithiothreitol] | – | – | – | decrease in total polymer mass ([1]; assembly at 10 mM DTT compared with 0.01-1.0 mM DTT, adult tau, 50 μM arachidonic acid): > 50%
CCC=CCC=CCC=CCC=CCC=CCCCC(=O)O [5,8,11,14,17-eicosapentaenoic acid] | 11.81 ± 1.51 | 48 | – | –
CCCCCC=CCC=CCC=CCC=CCCCC(=O)O [5,8,11,14-eicosatetraenoic acid (20:4), 5,8,11,14-eicosatetraenoic acid] | 24.51 ± 2.58 | 100 | 0.16 | lowest concentration inducing assembly [3]: 10 to 20 µM; apparent threshold for stimulation of tau assembly ([2]; juvenile MTτ, longest timepoint tested): less than 10 μμM; polymerization of adult rat MTτ ([1]; arachidonic acid 10-40 μM): stimulated the polymerization; CMC in the Tris buffering system ([4]; 250 mM NaCl, Tris buffering system): > 2 mM; filament formation, tau purified from porcine whole brain [5]: Filaments were observed; filament formation, human recombinant tau [6]: Filaments were observed
CCCCCC=CCC=CCC=CCCCCCCC(=O)O [8,11,14-eicosatrienoic acid (20:3), 8,11,14-eicosatrienoic acid] | 7.99 ± 1.55 | 33 | – | –
CC/C=C\C/C=C\C/C=C\CCCCCCCC(=O)O [9,12,15-linolenic acid (18:3), 9,12,15-linolenic acid] | 4.01 ± 0.72 | 16 | – | –
CCCCC/C=C\C/C=C\CCCCCCCC(=O)O [9,12-linoleic acid (18:2), 9,12-linoleic acid] | 14.74 ± 3.31 | 60 | 0.21 | amyloid filament lengths by electron microscopy [7]: dramatic increase in filament lengths; relative potency as inducer of amyloid assembly ([8]; at higher concentrations of free fatty acids (above 40 μM)): more potent inducer of amyloid assembly; fatty acid concentration giving significant increases in polymer content [8]: 40 µM
CCCCCCCC/C=C\CCCCCCCC(=O)O [9-oleic acid (18:1), 9-oleic acid] | 7.36 ± 1.77 | 30 | 0.59 | amyloid filament lengths by electron microscopy [7]: dramatic increase in filament lengths; fatty acid concentration giving significant increases in polymer content [8]: 40 µM
CCCCCC/C=C\CCCCCCCC(=O)O [9-palmitoleic acid (16:1), 9-palmitoleic acid] | 23.69 ± 4.11 | 97 | 0.44 | –
CCCCCC=CCC=CCCCCCCCCCC(=O)O [11,14-eicosadienoic acid (20:2), 11,14-eicosadienoic acid] | 1.20 ± 0.32 | 5 | – | –
CCCCCCCCC=CCCCCCCCCCC(=O)O [11-eicosenoic acid (20:1), 11-eicosenoic acid] | 8.23 ± 1.36 | 34 | – | –
CCCCC/C=C\C/C=C\C/C=C\C/C=C\CCCC(=O)OCC [ethyl ester of arachidonic acid] | – | – | – | stimulation of tau assembly, qualitative examination of grids [2]: did not appear to be stimulated
N[C@@H](CCC(=O)N[C@@H](CS)C(=O)NCC(=O)O)C(=O)O [glutathione] | – | – | – | assembly of microtubule tau (rat) [9]: promoted the assembly
CCCCC/C=C\C/C=C\C/C=C\C/C=C\CCCC(=O)OC [methyl ester of arachidonic acid] | – | – | – | stimulation of tau assembly, qualitative examination of grids [2]: did not appear to be stimulated
CCCCCCCCCCCCCC(=O)O [myristic acid (14:0), myristic acid] | 5.50 ± 0.76 | 22 | >1 | –
CCCCCCCCCCCCCCCC(=O)O [palmitic acid (16:0), palmitic acid] | 7.37 ± 0.92 | 30 | – | –
CCCCCCCCCCCCCCCCCC(=O)O [stearic acid (18:0), stearic acid] | 3.60 ± 0.54 | 15 | >1 | –
